Results taken from ChEMBL document CHEMBL5214927, “Recent advance on carbamate-based cholinesterase inhibitors as potential multifunctional agents against Alzheimer's disease” (Eur J Med Chem, 2022).

Tests used:
[1] = target: T1, Acetylcholinesterase (Electrophorus electricus, UniProt O42275); experiment: Inhibition of electric eel AChE
[2] = target: T2, Cholinesterases; ACHE & BCHE (Homo sapiens) (UniProt P06276+P22303); experiment: Selectivity index, ratio of IC50 for AChE (unknown origin) to BChE (unknown origin); type: protein assay
[3] = target: T3, Cholinesterase (Homo sapiens, UniProt P06276); experiment: Inhibition of BChE (unknown origin)
[4] = target: T3, Cholinesterase; experiment: Inhibition of human BChE
[5] = target: T4, Acetylcholinesterase (Homo sapiens, UniProt P22303); experiment: Inhibition of human AChE
[6] = target: T2, Cholinesterases; ACHE & BCHE (Homo sapiens); experiment: Selectivity index, ratio of IC50 for human AChE to IC50 for human BChE; type: protein assay
[7] = target: T2, Cholinesterases; ACHE & BCHE (Homo sapiens); experiment: Selectivity index, ratio of IC50 for recombinant human serum BChE to IC50 for recombinant human serum AChE; type: protein assay
[8] = target: T5, Cholinesterase (Equus caballus, UniProt P81908); experiment: Inhibition of equine BChE
[9] = target: T6, Acetylcholinesterase (Rattus norvegicus, UniProt P37136); experiment: Inhibition of rat AChE
T6 sequence (P37136 whole entry): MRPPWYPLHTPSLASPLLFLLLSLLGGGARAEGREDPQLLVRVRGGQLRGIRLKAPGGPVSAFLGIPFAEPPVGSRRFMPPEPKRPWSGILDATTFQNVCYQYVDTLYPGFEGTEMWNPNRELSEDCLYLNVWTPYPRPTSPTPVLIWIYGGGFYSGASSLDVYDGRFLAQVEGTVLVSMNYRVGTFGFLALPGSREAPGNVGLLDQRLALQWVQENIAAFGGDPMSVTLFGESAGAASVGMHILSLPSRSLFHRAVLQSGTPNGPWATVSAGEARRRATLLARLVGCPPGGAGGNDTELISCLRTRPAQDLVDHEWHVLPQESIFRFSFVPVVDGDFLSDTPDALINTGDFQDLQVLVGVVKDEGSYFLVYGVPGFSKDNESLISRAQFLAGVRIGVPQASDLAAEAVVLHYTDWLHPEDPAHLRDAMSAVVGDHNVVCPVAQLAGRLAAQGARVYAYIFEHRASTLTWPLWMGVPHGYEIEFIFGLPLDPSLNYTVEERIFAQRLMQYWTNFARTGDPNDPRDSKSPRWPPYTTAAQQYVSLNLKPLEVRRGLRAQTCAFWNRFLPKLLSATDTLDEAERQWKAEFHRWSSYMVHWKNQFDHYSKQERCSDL

[10] = Selectivity index, ratio of IC50 for electric eel AChE to IC50 for equine BChE
[11] = target: T1, Acetylcholinesterase; experiment: Inhibition of electric eel AChE using acetylthiocholine iodide as substrate incubated for 30 mins by Ellman's method
[12] = target: T1, Acetylcholinesterase; experiment: Binding affinity to electric eel AChE assessed as inhibition constant using acetylthiocholine iodide as substrate incubated for 30 mins by Ellman's method
[13] = target: T3, Cholinesterase; experiment: Inhibition of human serum BChE using butyrylthiocholine as substrate by Ellman's method
[14] = target: T4, Acetylcholinesterase
Description: Inhibition of human erythrocyte AChE using acetylthiocholine iodide as substrate preincubated for 30 mins followed by substrate addition measured after 5 mins by Ellman's method

[15] = target: T7, Amine oxidase [flavin-containing] B (Homo sapiens, UniProt P27338); experiment: Inhibition of MAO-B (unknown origin)
T7 sequence (P27338 whole entry): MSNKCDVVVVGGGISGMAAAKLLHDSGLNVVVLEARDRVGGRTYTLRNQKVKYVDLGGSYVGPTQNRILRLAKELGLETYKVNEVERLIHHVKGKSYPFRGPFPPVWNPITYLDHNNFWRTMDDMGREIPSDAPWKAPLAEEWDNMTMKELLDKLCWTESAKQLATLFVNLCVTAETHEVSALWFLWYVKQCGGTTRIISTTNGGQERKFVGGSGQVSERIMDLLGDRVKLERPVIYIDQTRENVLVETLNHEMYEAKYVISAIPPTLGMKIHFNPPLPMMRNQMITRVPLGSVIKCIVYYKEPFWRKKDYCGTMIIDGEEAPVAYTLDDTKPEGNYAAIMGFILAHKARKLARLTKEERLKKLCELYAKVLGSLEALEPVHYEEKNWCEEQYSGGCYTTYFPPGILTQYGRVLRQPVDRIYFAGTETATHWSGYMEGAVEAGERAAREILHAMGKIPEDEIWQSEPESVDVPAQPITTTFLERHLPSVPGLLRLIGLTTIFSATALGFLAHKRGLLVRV

[16] = target: T4, Acetylcholinesterase; experiment: Inhibition of recombinant human AChE
[17] = target: T8, Amine oxidase [flavin-containing] A (Homo sapiens, UniProt P21397); experiment: Inhibition of MAO-A (unknown origin)
T8 sequence (P21397 whole entry): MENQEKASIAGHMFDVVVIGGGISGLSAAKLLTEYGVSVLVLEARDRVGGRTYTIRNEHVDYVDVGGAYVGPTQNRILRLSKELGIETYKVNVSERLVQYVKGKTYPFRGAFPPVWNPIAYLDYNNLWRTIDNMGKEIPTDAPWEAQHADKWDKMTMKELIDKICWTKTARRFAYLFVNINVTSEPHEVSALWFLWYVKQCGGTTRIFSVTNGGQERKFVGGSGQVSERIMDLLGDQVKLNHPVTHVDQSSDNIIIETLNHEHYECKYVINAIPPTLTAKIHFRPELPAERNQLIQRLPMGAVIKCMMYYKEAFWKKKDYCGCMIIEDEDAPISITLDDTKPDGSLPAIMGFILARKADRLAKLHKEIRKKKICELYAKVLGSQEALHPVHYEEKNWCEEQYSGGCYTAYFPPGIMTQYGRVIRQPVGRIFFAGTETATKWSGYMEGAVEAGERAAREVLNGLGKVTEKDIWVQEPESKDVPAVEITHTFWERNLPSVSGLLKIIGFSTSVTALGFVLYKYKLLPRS

[18] = target: T6, Acetylcholinesterase; experiment: Inhibition of Sprague-Dawley rat cortex AChE using acetylthiocholine iodide as substrate incubated for 15 mins in presence of iso-OMPA inhibitor by Ellman's method
[19] = target: T5, Cholinesterase; experiment: Inhibition of equine BChE using acetylthiocholine iodide as substrate preincubated for 10 mins followed by substrate addition by Ellman's method
[20] = target: T4, Acetylcholinesterase; experiment: Inhibition of AChE (unknown origin)

T1 sequence (O42275 whole entry): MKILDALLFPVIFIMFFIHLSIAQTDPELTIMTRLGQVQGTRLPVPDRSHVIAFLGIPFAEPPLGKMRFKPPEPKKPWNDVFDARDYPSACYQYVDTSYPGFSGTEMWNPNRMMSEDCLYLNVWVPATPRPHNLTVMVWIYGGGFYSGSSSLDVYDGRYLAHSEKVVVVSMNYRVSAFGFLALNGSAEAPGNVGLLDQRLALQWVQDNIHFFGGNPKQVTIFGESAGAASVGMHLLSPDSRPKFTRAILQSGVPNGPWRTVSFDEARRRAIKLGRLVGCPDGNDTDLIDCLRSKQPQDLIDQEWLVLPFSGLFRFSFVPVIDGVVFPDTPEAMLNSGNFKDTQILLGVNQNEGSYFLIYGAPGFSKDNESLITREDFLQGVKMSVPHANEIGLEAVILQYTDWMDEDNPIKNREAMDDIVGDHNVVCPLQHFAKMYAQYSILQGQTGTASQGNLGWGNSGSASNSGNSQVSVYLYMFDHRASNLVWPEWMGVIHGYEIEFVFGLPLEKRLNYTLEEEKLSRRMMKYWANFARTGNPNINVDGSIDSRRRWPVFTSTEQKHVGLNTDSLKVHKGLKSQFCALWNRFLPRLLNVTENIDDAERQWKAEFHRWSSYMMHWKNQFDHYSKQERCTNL
T4 sequence (P22303 whole entry): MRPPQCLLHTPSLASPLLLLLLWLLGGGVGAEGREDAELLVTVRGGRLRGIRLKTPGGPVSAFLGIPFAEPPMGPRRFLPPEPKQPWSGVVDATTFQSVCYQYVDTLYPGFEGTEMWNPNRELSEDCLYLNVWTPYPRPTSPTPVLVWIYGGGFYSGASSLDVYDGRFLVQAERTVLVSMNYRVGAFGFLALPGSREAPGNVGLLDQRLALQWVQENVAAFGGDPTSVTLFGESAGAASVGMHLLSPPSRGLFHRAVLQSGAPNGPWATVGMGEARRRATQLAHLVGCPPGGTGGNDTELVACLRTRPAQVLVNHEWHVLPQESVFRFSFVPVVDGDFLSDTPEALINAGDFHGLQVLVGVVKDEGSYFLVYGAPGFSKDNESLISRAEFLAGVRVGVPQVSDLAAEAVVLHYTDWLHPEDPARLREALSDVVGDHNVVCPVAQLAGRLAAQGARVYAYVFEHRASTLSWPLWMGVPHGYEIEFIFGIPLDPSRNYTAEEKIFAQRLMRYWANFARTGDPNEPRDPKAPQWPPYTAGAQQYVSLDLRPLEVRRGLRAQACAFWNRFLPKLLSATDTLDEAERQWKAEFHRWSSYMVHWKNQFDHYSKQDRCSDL
T2 sequence (P06276 whole entry, looked up): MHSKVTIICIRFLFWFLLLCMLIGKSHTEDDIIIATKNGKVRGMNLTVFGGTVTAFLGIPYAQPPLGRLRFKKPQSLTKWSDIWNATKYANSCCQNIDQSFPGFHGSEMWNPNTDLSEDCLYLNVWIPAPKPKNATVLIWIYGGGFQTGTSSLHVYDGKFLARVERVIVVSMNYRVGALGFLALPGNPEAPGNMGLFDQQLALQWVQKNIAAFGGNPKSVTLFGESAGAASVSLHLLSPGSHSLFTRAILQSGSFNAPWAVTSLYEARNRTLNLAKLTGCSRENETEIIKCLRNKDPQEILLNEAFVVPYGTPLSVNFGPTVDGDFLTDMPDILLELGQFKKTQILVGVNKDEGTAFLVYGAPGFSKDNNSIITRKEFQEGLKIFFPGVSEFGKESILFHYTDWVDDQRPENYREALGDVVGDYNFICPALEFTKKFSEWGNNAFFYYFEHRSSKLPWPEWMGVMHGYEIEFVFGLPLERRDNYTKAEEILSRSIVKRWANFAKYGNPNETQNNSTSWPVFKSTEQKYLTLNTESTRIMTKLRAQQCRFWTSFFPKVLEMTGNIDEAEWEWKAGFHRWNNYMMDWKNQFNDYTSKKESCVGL
T2 sequence (P22303 whole entry, looked up): as the sequence (P22303 whole entry) above
T3 sequence (P06276 whole entry): as the sequence (P06276 whole entry, looked up) above
T5 sequence (P81908 whole entry): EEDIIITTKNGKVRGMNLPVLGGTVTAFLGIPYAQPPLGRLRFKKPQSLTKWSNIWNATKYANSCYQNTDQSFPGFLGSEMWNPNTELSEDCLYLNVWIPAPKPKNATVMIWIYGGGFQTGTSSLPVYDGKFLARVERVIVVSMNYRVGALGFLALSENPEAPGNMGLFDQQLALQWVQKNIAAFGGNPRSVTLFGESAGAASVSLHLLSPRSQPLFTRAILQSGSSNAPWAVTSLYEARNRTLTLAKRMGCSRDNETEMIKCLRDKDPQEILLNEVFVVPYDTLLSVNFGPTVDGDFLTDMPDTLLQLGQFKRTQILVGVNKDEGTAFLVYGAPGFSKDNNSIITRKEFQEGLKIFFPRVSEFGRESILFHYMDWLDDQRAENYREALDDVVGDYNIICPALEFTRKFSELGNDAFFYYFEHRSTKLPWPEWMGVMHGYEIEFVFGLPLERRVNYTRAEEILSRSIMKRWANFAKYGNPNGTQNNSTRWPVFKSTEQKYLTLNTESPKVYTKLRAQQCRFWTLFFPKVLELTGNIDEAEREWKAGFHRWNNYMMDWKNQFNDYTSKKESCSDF

## CCCCCCCCNC(=O)Oc1cc(OC(=O)NCCCCCCCC)cc(OC(=O)NCCCCCCCC)c1
[1]
  IC50: 0.015 µM

## CC(C)c1ccc(NC(=O)Oc2ccc3c(c2)C2(C)COC(C2)O3)cc1 (stereo not given)
[2]
  Ratio IC50: 195

## COc1cc(/C=C/C(=O)NCCCCNC(=O)Oc2ccc3c(c2)CN2CCc4ccccc4C2N3C)ccc1O (stereo not given)
[3]
  IC50: 0.102 µM

## O=C(Oc1cc(O)c2c(=O)cc(-c3ccc(O)cc3)oc2c1)N1CCCCC1
[4]
  IC50: 0.094 µM
[5]
  IC50: 62.5 µM
[6]
  Ratio IC50: 665

## CNC(=O)Oc1cccc(CN(C)CCCCCCCOc2cccc(-c3cc(=O)c4ccccc4o3)c2)c1
[7]
  Ratio IC50: 122

## O=C(Nc1cccc([N+](=O)[O-])c1)OCCNc1c2ccccc2nc2ccccc12
[8]
  IC50: 0.017 µM
[1]
  IC50: 0.0221 µM

## CN1CCN(C(=O)Oc2ccc(-c3coc4cc(OC(=O)N5CCN(C)CC5)ccc4c3=O)cc2)CC1
[9]
  IC50: 1.2 µM

## CC(C)c1ccc(NC(=O)Oc2ccc3c(c2)[C@]2(C)CCN[C@@H]2N3)cc1
[2]
  Ratio IC50: 110

## CCC(C)(C)NCC(O)c1cc(O)cc(OC(=O)N(C)C)c1 (stereo not given)
[4]
  IC50: 0.05 µM
[5]
  IC50: 20 µM
[6]
  Ratio IC50: 400

## COC(=O)c1cc2c(OC(=O)N(C)C)cccc2[n+]([11CH3])c1
[5]
  IC50: 0.02 µM

## CCN(C)C(=O)Oc1cc(OC(=O)N(C)CC)cc(C(O)CNC(C)(C)CC)c1 (stereo not given)
[10]
  Ratio IC50: > 862

## COC(=O)CCC/C=C\C/C=C\C/C=C\CCOC(=O)Nc1cccc(Cl)c1
[11]
  IC50: 16.8 µM
[12]
  Ki: 0.93 µM

## O=c1ccc2ccc(OCCCCSC(=S)N3CCCCC3)cc2[nH]1
[8]
  IC50: 0.16 µM

## CCC(C)(C)NCC(O)c1cc(OC(=O)N(C)C)cc(OC(=O)N(C)C)c1 (stereo not given)
[10]
  Ratio IC50: > 796

## CN(C)C(=O)Oc1cccc(-c2coc3c4c(ccc3c2=O)OC(C)(C)C=C4)c1
[10]
  Ratio IC50: 49.3
[8]
  IC50: 0.68 µM
[1]
  IC50: 33.6 µM

## CNC(=O)Oc1cccc(CN(C)CCCCCCCOc2ccc3c(=O)c4ccccc4oc3c2)c1
[13]
  IC50: 0.00032 µM
[14]
  IC50: 0.0516 µM

## C#CCNC1CCc2c(OC(=O)N(C)CC)cccc21 (stereo not given)
[15]
  IC50: 0.83 µM
[16]
  IC50: 150 µM
[17]
  IC50: 0.019 µM
[4]
  IC50: 2.15 µM

## COc1cc(/C=C/c2ccc(OC(=O)N3CCN(C)CC3)cc2)cc(OC)c1
[18]
  IC50: 8.58 µM

## CCCCCCCNC(=O)Oc1ccc(F)c(-c2coc3c4c(ccc3c2=O)OC(C)(C)C=C4)c1
[10]
  Ratio IC50: 836
[8]
  IC50: 0.093 µM
[1]
  IC50: 77.8 µM

## COC(=O)CCC/C=C\C/C=C\C/C=C\CCOC(=O)Nc1ccc(Cl)cc1
[11]
  IC50: 20.2 µM
[12]
  Ki: 2.62 µM

## C#CCNC1CCc2c(OC(=O)N(C)C)cccc21 (stereo not given)
[15]
  IC50: 0.26 µM
[16]
  IC50: 86 µM
[17]
  IC50: 0.053 µM

## Cc1ccccc1NC(=O)Oc1ccc2c(c1)[C@]1(C)CCO[C@@H]1O2
[3]
  IC50: > 30 µM

## CN[C@@H](CCOc1ccc([N+](=O)[O-])cc1)c1ccc(OC(=O)N(C)C)cc1
[9]
  IC50: 0.101 µM

## C#CCN(C)C1CCc2cccc(OC(=O)N(C)C)c21 (stereo not given)
[15]
  IC50: 0.33 µM
[16]
  IC50: 730 µM
[17]
  IC50: 7 µM

## CCCCCCCNC(=O)OCn1nc(-c2ccccc2OC)ccc1=O
[19]
  IC50: 12.8 µM

## CCN1/C(=C/C(C)=O)Sc2ccc(OC(=O)OCCOCCNC(=O)c3cc4c(OC(=O)N(C)C)cccc4[n+](C)c3)cc21
[4]
  IC50: 0.482 µM
[5]
  IC50: 0.0814 µM

## CC(C)C[C@@H](CS(=O)(=O)NCc1ccc(Cl)cc1)NC(=O)OCc1ccccc1
[10]
  Ratio IC50: 10.3

## COC(=O)CCC/C=C\C/C=C\C/C=C\CCOC(=O)Nc1ccc(Br)cc1
[11]
  IC50: 19.2 µM
[12]
  Ki: 1.1 µM

## CC(C)c1ccc(NC(=O)Oc2ccc3c(c2)[C@]2(C)CCN(CCc4ccccc4)[C@@H]2N3C)cc1
[2]
  Ratio IC50: > 5000
[20]
  IC50: > 30 µM

## COc1ccccc1-c1ccc(=O)n(COC(=O)Nc2ccc(C)cc2)n1
[19]
  IC50: 34.5 µM

## CCNC(=O)Oc1ccc2c(c1)[C@]1(C)CCO[C@@H]1O2
[2]
  Ratio IC50: 60
[20]
  IC50: 0.036 µM
[3]
  IC50: 0.006 µM

## COc1ccc2[nH]cc(CCC(=O)CCCCCCNC(=O)Oc3ccc4c(c3)CN3CCc5ccccc5C3N4C)c2c1 (stereo not given)
[3]
  IC50: 0.102 µM

## CN1CC[C@@]2(C)c3cc(OC(=O)Nc4ccccc4)ccc3N(C)[C@@H]12
[2]
  Ratio IC50: 65

## O=C1CCOc2cc(OCCCCCSC(=S)N3CCCCC3)ccc21
[16]
  IC50: 0.1 µM

## CCCCCCCNC(=O)Oc1ccc2c(c1)CN1CCc3ccc(/N=N\c4ccccc4)cc3C1N2C (stereo not given)
[3]
  IC50: 0.0445 µM

## COC(=O)CCC/C=C\C/C=C\C/C=C\CCOC(=O)Nc1ccc(OC)cc1
[11]
  IC50: 24.8 µM
[12]
  Ki: 3.48 µM

## CC(C)c1ccc(NC(=O)Oc2ccc3c(c2)[C@]2(C)CCO[C@@H]2O3)cc1
[3]
  IC50: 0.027 µM

## CN1c2ccc(OC(=O)NCC3CCCCC3)cc2[C@]2(C)CCN(CCc3ccccc3)[C@H]12
[2]
  Ratio IC50: 1390
[20]
  IC50: 2.5 µM

## COC(=O)C1=CN([11CH3])c2cccc(OC(=O)N(C)C)c2C1
[5]
  IC50: > 1000 µM

## CCCCCCNC(=O)OCn1nc(-c2ccccc2OC)ccc1=O
[19]
  IC50: 35 µM

## CN1CCN(C(=O)Oc2ccc(/C=C/c3cc(OC(=O)N4CCN(C)CC4)cc(OC(=O)N4CCN(C)CC4)c3)cc2)CC1
[18]
  IC50: 6.97 µM

## C#CCN(C)C1CCc2c(OC(=O)N(C)CC)cccc21 (stereo not given)
[15]
  IC50: 0.027 µM
[16]
  IC50: 4 µM
[17]
  IC50: 0.79 µM
[4]
  IC50: 14.9 µM

## CCCCCCCNC(=O)OCCN1CCN(CCCCCOc2ccc3ccc(=O)[nH]c3c2)CC1
[8]
  IC50: 1.8 µM
[1]
  IC50: 0.39 µM

## C#CCN[C@@H]1CCc2ccc(OC(=O)N(C)CC)cc21
[15]
  IC50: 2 µM
[16]
  IC50: 1000 µM
[17]
  IC50: 0.77 µM
[4]
  IC50: 4.1 µM

## CCCCCCCNC(=O)Oc1ccc2[nH]cc(CCNC(=O)c3ccccc3Nc3ccccc3)c2c1
[10]
  Ratio IC50: > 10000
[8]
  IC50: 0.007 µM
[1]
  IC50: > 100 µM
